Measurements reported in US20050112573A1, “Method of detecting toxic substance” (priority 2001, published 2005).

Test system: yeast genes (level of expressed mRNA)
Experiment: DNA chip analysis of expressed mRNA of yeast genes after 2 h culture with a toxic chemical substance
Assay type: cell-based, Saccharomyces cerevisiae S288C
Procedure, shortened: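 Values are treated-to-control fluorescence ratios from a whole-yeast-genome DNA chip (65° C, over 12 h hybridization) using Cy3/Cy5-labelled cDNA from mRNA. Log-phase S288C cells in YPD at 25° C were exposed 2 h to a toxicant at sublethal, growth-inhibiting concentration.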

Na2As [(1)]
0.8: The level of expressed mRNA in the presence of chemical substance/ (yeast gene YOL036W, ratio to control without chemical) | The level of expressed mRNA in the presence of chemical substance/The level of expressed mRNA in the absence of chemical substance (yeast gene YOR117W) | The level of expressed mRNA in the presence of chemical substance/in the absence of chemical substance (yeast gene YOR180C) | The level of expressed mRNA in the presence of chemical substance/ (yeast gene YOR197W, ratio to control without chemical) | The level of expressed mRNA in the presence of chemical substance/The level of expressed mRNA in the absence of chemical substance (yeast gene YOR259C) | The level of expressed mRNA in the presence of chemical substance/in the absence of chemical substance (yeast gene YOR363C) | The level of expressed mRNA in the presence of chemical substance/The level of expressed mRNA in the absence of chemical substance (yeast gene YPR108W)
1.5: The level of expressed mRNA in the presence of chemical substance/The level of expressed mRNA in the absence of chemical substance (yeast gene YNR069C) | The level of expressed mRNA in the presence of chemical substance/The level of expressed mRNA in the absence of chemical substance (yeast gene YPL149W)
1.8: The level of expressed mRNA in the presence of chemical substance/The level of expressed mRNA in the absence of chemical substance (yeast gene YOR036W)
2.0: The level of expressed mRNA in the presence of chemical substance/ (yeast gene YOL162W, ratio to control without chemical)
1.0: The level of expressed mRNA in the presence of chemical substance/ (yeast gene YNL281W, ratio to control without chemical) | The level of expressed mRNA in the presence of chemical substance/The level of expressed mRNA in the absence of chemical substance (yeast gene YNL333W) | The level of expressed mRNA in the presence of chemical substance/ (yeast gene YOL082W, ratio to control without chemical) | The level of expressed mRNA in the presence of chemical substance/ (yeast gene YOL117W, ratio to control without chemical) | The level of expressed mRNA in the presence of chemical substance/ (yeast gene YOL131W, ratio to control without chemical) | The level of expressed mRNA in the presence of chemical substance/The level of expressed mRNA in the absence of chemical substance (yeast gene YOR157C) | The level of expressed mRNA in the presence of chemical substance/The level of expressed mRNA in the absence of chemical substance (yeast gene YOR181W) | The level of expressed mRNA in the presence of chemical substance/The level of expressed mRNA in the absence of chemical substance (yeast gene YOR198C) | The level of expressed mRNA in the presence of chemical substance/The level of expressed mRNA in the absence of chemical substance (yeast gene YOR261C) | The level of expressed mRNA in the presence of chemical substance/ (yeast gene YPL087W, ratio to control without chemical) | The level of expressed mRNA in the presence of chemical substance/ (yeast gene YPL206C, ratio to control without chemical)
2.1: The level of expressed mRNA in the presence of chemical substance/The level of expressed mRNA in the absence of chemical substance (yeast gene YNL093W)
2.9: The level of expressed mRNA in the presence of chemical substance/ (yeast gene YOR019W, ratio to control without chemical)
0.9: The level of expressed mRNA in the presence of chemical substance/ (yeast gene YNL074C, ratio to control without chemical substance, 2 h culture) | The level of expressed mRNA in the presence of chemical substance/ (yeast gene YNL305C, ratio to control without chemical) | The level of expressed mRNA in the presence of chemical substance/The level of expressed mRNA in the absence of chemical substance (yeast gene YOL013C) | The level of expressed mRNA in the presence of chemical substance/The level of expressed mRNA in the absence of chemical substance (yeast gene YOL164W) | The level of expressed mRNA in the presence of chemical substance/The level of expressed mRNA in the absence of chemical substance (yeast gene YOR132W) | The level of expressed mRNA in the presence of chemical substance/The level of expressed mRNA in the absence of chemical substance (yeast gene YOR288C) | The level of expressed mRNA in the presence of chemical substance/The level of expressed mRNA in the absence of chemical substance (yeast gene YOR383C) | The level of expressed mRNA in the presence of chemical substance/ (yeast gene YPL222W, ratio to control without chemical)
1.2: The level of expressed mRNA in the presence of chemical substance/ (yeast gene YNR068C, ratio to control without chemical) | The level of expressed mRNA in the presence of chemical substance/The level of expressed mRNA in the absence of chemical substance (yeast gene YPL089C) | The level of expressed mRNA in the presence of chemical substance/ (yeast gene YPR023C, ratio to control without chemical) | The level of expressed mRNA in the presence of chemical substance/in the absence of chemical substance (yeast gene YPR184W)
0.7: The level of expressed mRNA in the presence of chemical substance/ (yeast gene YNL115C, ratio to control without chemical substance, 2 h culture) | The level of expressed mRNA in the presence of chemical substance/The level of expressed mRNA in the absence of chemical substance (yeast gene YOR355W) | The level of expressed mRNA in the presence of chemical substance/The level of expressed mRNA in the absence of chemical substance (yeast gene YPL154C) | The level of expressed mRNA in the presence of chemical substance/The level of expressed mRNA in the absence of chemical substance (yeast gene YPR103W)
1.3: The level of expressed mRNA in the presence of chemical substance/ (yeast gene YNL092W, ratio to control without chemical substance, 2 h culture) | The level of expressed mRNA in the presence of chemical substance/The level of expressed mRNA in the absence of chemical substance (yeast gene YNR010W) | The level of expressed mRNA in the presence of chemical substance/ (yeast gene YOL032W, ratio to control without chemical) | The level of expressed mRNA in the presence of chemical substance/ (yeast gene YOL071W, ratio to control without chemical) | The level of expressed mRNA in the presence of chemical substance/ (yeast gene YPL196W, ratio to control without chemical)
1.4: The level of expressed mRNA in the presence of chemical substance/ (yeast gene YOL047C, ratio to control without chemical)
0.6: The level of expressed mRNA in the presence of chemical substance/The level of expressed mRNA in the absence of chemical substance (yeast gene YOR124C)
2.3: The level of expressed mRNA in the presence of chemical substance/ (yeast gene YPR151C, ratio to control without chemical)
4.1: The level of expressed mRNA in the presence of chemical substance/ (yeast gene YOL150C, ratio to control without chemical substance, 2 h culture)
1.1: The level of expressed mRNA in the presence of chemical substance/ (yeast gene YNL156C, ratio to control without chemical substance, 2 h culture) | The level of expressed mRNA in the presence of chemical substance/ (yeast gene YNL234W, ratio to control without chemical substance, 2 h culture) | The level of expressed mRNA in the presence of chemical substance/in the absence of chemical substance (yeast gene YNR072W) | The level of expressed mRNA in the presence of chemical substance/ (yeast gene YOL083W, ratio to control without chemical) | The level of expressed mRNA in the presence of chemical substance/in the absence of chemical substance (yeast gene YOL096C) | The level of expressed mRNA in the presence of chemical substance/The level of expressed mRNA in the absence of chemical substance (yeast gene YOR185C) | The level of expressed mRNA in the presence of chemical substance/The level of expressed mRNA in the absence of chemical substance (yeast gene YPL109C)
